For this assay, the system named is prostate cancer cells (parental PPT2, primary tumor-derived). The assay is described as follows: Cytotoxic drug treatment of parental primary prostate cancer cells under stemness-promoting culture. The class given is cell-based, human. The following applies: 0.1-3 μM concentrations; FIG. 1C. An excerpt: Initially, the isolated fast adherent cells represented a mixture of a majority of tumor-associated fibrocytes with a minor population of large cancer cells (FIG. 1A).

On to `CC(=O)O[C@H]1C(=O)[C@@]2(C)[C@H]([C@H](OC(=O)c3ccccc3)[C@]3(O)C[C@H](OC(=O)[C@H](O)[C@@H](NC(=O)c4ccccc4)c4ccccc4)C(C)=C1C3(C)C)[C@]1(OC(C)=O)CO[C@@H]1C[C@@H]2O` [Taxol], for which the “enrichment of multinucleated gigantic cells (highly drug resistant type of CSCs)” value was “significant enrichment and visualization of the multinucleated gigantic cells”.
As for `CC(=O)O[C@@]12CO[C@@H]1C[C@H](O)[C@@]1(C)C(=O)[C@H](OC(=O)C3CC3)C3=C(C)[C@@H](OC(=O)[C@H](O)[C@H](C=C(C)C)NC(=O)OC(C)(C)C)C[C@@](O)([C@@H](OC(=O)c4ccccc4)[C@H]21)C3(C)C` [SBT-1214], the “enrichment of multinucleated gigantic cells (highly drug resistant type of CSCs)” value is “significant enrichment and visualization of the multinucleated gigantic cells”.
